These results are taken from patent publication US20250186634A1, “METHODS OF TREATING SMALL CELL LUNG CANCER” (Evergreen Discovery, LLC., priority 2023, published 2025).

The target of assay [1] is T1, CCK2R (Rattus norvegicus, UniProt P30553).
T1 construct: rat pancreatic AR42J cells, which are known to express CCK2R; endogenous in cells; host or cells: AR42J rat pancreatic cancer cell line
T1 sequence (P30553 1-452): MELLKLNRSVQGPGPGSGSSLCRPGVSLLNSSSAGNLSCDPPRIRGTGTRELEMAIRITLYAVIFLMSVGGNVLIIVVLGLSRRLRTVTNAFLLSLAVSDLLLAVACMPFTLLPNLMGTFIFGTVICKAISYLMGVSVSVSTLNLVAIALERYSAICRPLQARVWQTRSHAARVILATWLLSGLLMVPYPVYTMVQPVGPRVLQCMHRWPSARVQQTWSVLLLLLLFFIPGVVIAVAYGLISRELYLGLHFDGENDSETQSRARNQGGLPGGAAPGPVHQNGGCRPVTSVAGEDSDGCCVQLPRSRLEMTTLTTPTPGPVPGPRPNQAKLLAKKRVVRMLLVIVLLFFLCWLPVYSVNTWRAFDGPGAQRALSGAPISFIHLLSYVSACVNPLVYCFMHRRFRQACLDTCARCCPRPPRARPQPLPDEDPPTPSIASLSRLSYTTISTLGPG
Put plainly: Small molecule blocking of PP-F11-FITC fluorescent signal in AR42J cells. The class given is cell-based. Conditions: 100 nM PP-F11-FITC, antagonist at 50× the concentration of PP-F11-FITC, FIG. 1A.
Experimental: Small molecule antagonism of PP-F11 in AR42J and Panc1 cell lines was evaluated by measuring the intensity of a fluorescent (“FL”) signal of FL tagged PP-F11 in the presence or absence of small molecule inhibitors.
Each blocking agent was added in a 50× excess dose concentration to saturate available receptors.
FIG. 1A depicts small molecule blocking experiments performed in rat pancreatic AR42J cells, which are known to express CCK2R. 100 nM of a fluorescently labeled version of PP-F11 (PP-F11-FITC) was added to cell culture in the absence of or the presence of various small molecule CCK2 receptor antagonists at 50× the concentration of fluorescently labeled PP-F11. To determine blocking of PP-F11, the fluorescent intensity of fluorescently labeled PP-F11 was measured in each experiment.

For assay [2], the target named is T1, CCK2R. Put plainly: Uptake of 177Lu-EVG321 by AR42J cells pre-treated with blocking agent (gamma counting). Conditions: 2 mM blocking agent (100× excess dose), pre-treated 1 hour, 200 fmols 177Lu-EVG321 per well, two-tailed t-test, FIG. 3A-C. Type of assay: cell-based.
Experimental: AR42J rat pancreatic cell line were used as they express the CCK2 receptor. The AR42J rat pancreatic cancer cell line was cultured in F-12K medium from ATCC with a final concentration of FBS of 20% (v/v). Medium was changed every 2-3 days and a sub-cultivation ratio of 1:3 was used to split the cells. […] 1×10^6AR42J cells were seeded per well in a 6 well plate in 2 mL of media (DMEM: F12+10% Fetal Bovine Serum (FBS)). Cells were stored at 37° C. in an incubator starting at time 0 for 24-48 hours (depending on cell adherence). On the day of experiment, 1 hour before adding the blocking agent, the medium was changed and replaced with 2 mL of fresh media, and incubated at 37° C. degrees for 1 hour. Once the 1-hour incubation was complete, 4 μL of blocking agent was added to each well to provide a final concentration of 2 mM (i.e., 100 times more concentrated than the radioactive molecule). The plate was gently shaken and incubated at 37° C. for 1 hour. […] Samples were then analyzed using a Hidex Gamma counter to measure counts from each tube (gamma peaks of ^177Lu at 113 keV and 208 keV, 5 minutes per tube counting). […] Radioactive uptake was measured as a fraction of the added radiation at time 0 and used to calculate relative binding in counts per minute (CPM). […]

Each structure is given as a SMILES string.

As for `CSCC[C@H](NC(=O)[C@H](Cc1c[nH]c2ccccc12)NC(=O)CNC(=O)[C@H](Cc1ccc(O)cc1)NC(=O)[C@H](C)NC(=O)[C@@H](CCC(=O)O)NC(=O)[C@@H](CCC(=O)O)NC(=O)[C@@H](CCC(=O)O)NC(=O)[C@@H](CCC(=O)O)NC(=O)[C@@H](CCC(=O)O)NC(=O)[C@H](N)CCC(=O)O)C(=O)N[C@@H](CC(=O)O)C(=O)N[C@@H](Cc1ccccc1)C(N)=O` [PP-F11], the “fluorescent signal of PP-F11-FITC compared to experiment A (PP-F11-FITC only); decrease indicates blocking of PP-F11 binding” value on CCK2R [1] is “decrease in fluorescent signal”.
For the molecule `CCCN(CCC)C(=O)C(CCC(=O)O)NC(=O)c1ccccc1` (stereo not shown) [proglumide, 4-benzamido-5-(dipropylamino)-5-oxopentanoic acid], on CCK2R [2], the “specific uptake of 177Lu-EVG321 (relative uptake, CPM) versus cells without blocking agent” value is “did not show as drastic and statistically significant reduction of uptake”.
Regarding `CNc1cccc(NC(=O)N[C@@H]2N=C(c3ccccn3)c3ccccc3N(CC(=O)C(C)(C)C)C2=O)c1` [sograzepide, (R)-1-(1-(3,3-dimethyl-2-oxobutyl)-2-oxo-5-(pyridin-2-yl)-2,3-dihydro-1H-benzo[e][1,4]diazepin-3-yl)-3-(3-(methylamino)phenyl) urea], on CCK2R [1], the “fluorescent signal of PP-F11-FITC compared to experiment A (PP-F11-FITC only); decrease indicates blocking of PP-F11 binding” value is reported as “decrease in fluorescent signal”. On CCK2R [2], the “specific uptake of 177Lu-EVG321 (relative uptake, CPM) versus cells without blocking agent” value is on record as “significant decrease in the specific uptake”.
